# Test results from ChEMBL document CHEMBL4251634, “Synthesis and antimicrobial activity of pyrimidinyl 1,3,4-oxadiazoles, 1,3,4-thiadiazoles and 1,2,4-triazoles” (2018).
# The source made the active and inactive calls. The rule behind the calls is not given here.
# Key:
# Type in all cases: functional
# [1] = test system: Staphylococcus aureus; test: Antibacterial activity against Staphylococcus aureus assessed as diameter of inhibition zone at 12.5 ug/well after 24 hrs by agar well diffusion method
# [2] = test system: Aspergillus niger; test: Antifungal activity against Aspergillus niger assessed as diameter of inhibition zone at 12.5 ug/well after 48 hrs by agar well diffusion method; conditions: for zone of inhibition at 12.5 µg/disc: read-out: DIZ
# [3] = test system: Pseudomonas aeruginosa; test: Antibacterial activity against Pseudomonas aeruginosa assessed as diameter of inhibition zone at 12.5 ug/well after 24 hrs by agar well diffusion method; conditions: for zone of inhibition at 12.5 µg/disc: read-out: DIZ
# [4] = test system: Klebsiella pneumoniae; test: Antibacterial activity against Klebsiella pneumoniae assessed as diameter of inhibition zone at 25 ug/well after 24 hrs by agar well diffusion method; conditions: for zone of inhibition at 25 µg/disc: read-out: DIZ
# [5] = test system: Penicillium chrysogenum; test: Antifungal activity against Penicillium chrysogenum assessed as diameter of inhibition zone at 25 ug/well after 48 hrs by agar well diffusion method; conditions: for zone of inhibition at 25 µg/disc: read-out: DIZ
# [6] = test system: Penicillium chrysogenum; test: Antifungal activity against Penicillium chrysogenum assessed as diameter of inhibition zone at 100 ug/well after 48 hrs by agar well diffusion method; conditions: for zone of inhibition at 100 µg/disc: read-out: DIZ
# [7] = test system: Bacillus subtilis; test: Antibacterial activity against Bacillus subtilis assessed as diameter of inhibition zone at 50 ug/well after 24 hrs by agar well diffusion method; conditions: for zone of inhibition at 50 µg/disc: read-out: DIZ
# [8] = test system: Pseudomonas aeruginosa; test: Antibacterial activity against Pseudomonas aeruginosa assessed as diameter of inhibition zone at 50 ug/well after 24 hrs by agar well diffusion method; conditions: for zone of inhibition at 50 µg/disc: read-out: DIZ
# [9] = test system: Pseudomonas aeruginosa; test: Antibacterial activity against Pseudomonas aeruginosa assessed as diameter of inhibition zone at 25 ug/well after 24 hrs by agar well diffusion method; conditions: for zone of inhibition at 25 µg/disc: read-out: DIZ
# [10] = test system: Klebsiella pneumoniae; test: Antibacterial activity against Klebsiella pneumoniae assessed as diameter of inhibition zone at 50 ug/well after 24 hrs by agar well diffusion method; conditions: for zone of inhibition at 50 µg/disc: read-out: DIZ
# [11] = test system: Pseudomonas aeruginosa; test: Antibacterial activity against Pseudomonas aeruginosa assessed as diameter of inhibition zone at 100 ug/well after 24 hrs by agar well diffusion method; conditions: for zone of inhibition at 100 µg/disc: read-out: DIZ
# [12] = test system: Bacillus subtilis; test: Antibacterial activity against Bacillus subtilis assessed as diameter of inhibition zone at 100 ug/well after 24 hrs by agar well diffusion method; conditions: for zone of inhibition at 100 µg/disc: read-out: DIZ
# [13] = test system: Staphylococcus aureus; test: Antibacterial activity against Staphylococcus aureus assessed as diameter of inhibition zone at 25 ug/well after 24 hrs by agar well diffusion method; conditions: for zone of inhibition at 25 µg/disc: read-out: DIZ
# [14] = test system: Staphylococcus aureus; test: Antibacterial activity against Staphylococcus aureus assessed as diameter of inhibition zone at 100 ug/well after 24 hrs by agar well diffusion method; conditions: for zone of inhibition at 100 µg/disc: read-out: DIZ
# [15] = test system: Penicillium chrysogenum; test: Antifungal activity against Penicillium chrysogenum assessed as diameter of inhibition zone at 12.5 ug/well after 48 hrs by agar well diffusion method; conditions: for zone of inhibition at 12.5 µg/disc: read-out: DIZ
# [16] = test system: Aspergillus niger; test: Antifungal activity against Aspergillus niger assessed as diameter of inhibition zone at 50 ug/well after 48 hrs by agar well diffusion method; conditions: read-out: DIZ
# [17] = test system: Bacillus subtilis; test: Antibacterial activity against Bacillus subtilis assessed as diameter of inhibition zone at 12.5 ug/well after 24 hrs by agar well diffusion method; conditions: for zone of inhibition at 12.5 µg/disc: read-out: DIZ
# [18] = test system: Bacillus subtilis; test: Antibacterial activity against Bacillus subtilis assessed as diameter of inhibition zone at 25 ug/well after 24 hrs by agar well diffusion method; conditions: for zone of inhibition at 25 µg/disc: read-out: DIZ
# [19] = test system: Aspergillus niger; test: Antifungal activity against Aspergillus niger assessed as diameter of inhibition zone at 100 ug/well after 48 hrs by agar well diffusion method; conditions: read-out: DIZ
# [20] = test system: Penicillium chrysogenum; test: Antifungal activity against Penicillium chrysogenum assessed as diameter of inhibition zone at 50 ug/well after 48 hrs by agar well diffusion method; conditions: for zone of inhibition at 50 µg/disc: read-out: DIZ
# [21] = test system: Staphylococcus aureus; test: Antibacterial activity against Staphylococcus aureus assessed as diameter of inhibition zone at 50 ug/well after 24 hrs by agar well diffusion method; conditions: for zone of inhibition at 50 µg/disc: read-out: DIZ
# [22] = test system: Klebsiella pneumoniae; test: Antibacterial activity against Klebsiella pneumoniae assessed as diameter of inhibition zone at 100 ug/well after 24 hrs by agar well diffusion method; conditions: for zone of inhibition at 100 µg/disc: read-out: DIZ
# [23] = test system: Klebsiella pneumoniae; test: Antibacterial activity against Klebsiella pneumoniae assessed as diameter of inhibition zone at 12.5 ug/well after 24 hrs by agar well diffusion method; conditions: for zone of inhibition at 12.5 µg/disc: read-out: DIZ
# [24] = test system: Aspergillus niger; test: Antifungal activity against Aspergillus niger assessed as diameter of inhibition zone at 25 ug/well after 48 hrs by agar well diffusion method; conditions: for zone of inhibition at 25 µg/disc: read-out: DIZ
structure (smiles),measurement,setting,value
Cc1cc(SCc2nnc(-c3ccc(Br)cc3)s2)nc(SCc2nnc(-c3ccc(Br)cc3)s2)n1,zone of inhibition at 12.5 µg/disc,[1]; read-out: DIZ,11 mm
same,zone of inhibition at 12.5 µg/disc,[2],22 mm
same,zone of inhibition at 12.5 µg/disc,[3],19 mm
same,zone of inhibition at 25 µg/disc,[4],26 mm
same,zone of inhibition at 25 µg/disc,[5],15 mm
same,zone of inhibition at 100 µg/disc,[6],20 mm
same,zone of inhibition at 50 µg/disc,[7],21 mm
same,zone of inhibition at 50 µg/disc,[8],25 mm
same,zone of inhibition at 25 µg/disc,[9],23 mm
same,zone of inhibition at 50 µg/disc,[10],28 mm
same,zone of inhibition at 100 µg/disc,[11],29 mm
same,zone of inhibition at 100 µg/disc,[12],24 mm
same,zone of inhibition at 25 µg/disc,[13],13 mm
same,zone of inhibition at 100 µg/disc,[14],17 mm
same,zone of inhibition at 12.5 µg/disc,[15],13 mm
same,zone of inhibition at 50 µg/disc,[16],26 mm
same,zone of inhibition at 12.5 µg/disc,[17],17 mm
same,zone of inhibition at 25 µg/disc,[18],19 mm
same,zone of inhibition at 100 µg/disc,[19],30 mm
same,zone of inhibition at 50 µg/disc,[20],17 mm
same,zone of inhibition at 50 µg/disc,[21],15 mm
same,zone of inhibition at 100 µg/disc,[22],31 mm
same,zone of inhibition at 12.5 µg/disc,[23],24 mm
same,zone of inhibition at 25 µg/disc,[24],24 mm
COc1ccc(-c2nnc(CSc3cc(C)nc(SCc4nnc(-c5ccc(OC)cc5)n4N)n3)n2N)cc1,diameter of the inhibition zone (DIZ),[1],inactive
same,diameter of the inhibition zone (DIZ),[2],inactive
same,diameter of the inhibition zone (DIZ),[3],inactive
same,diameter of the inhibition zone (DIZ),[4],inactive
same,diameter of the inhibition zone (DIZ),[5],inactive
same,diameter of the inhibition zone (DIZ),[6],inactive
same,diameter of the inhibition zone (DIZ),[7],inactive
same,diameter of the inhibition zone (DIZ),[8],inactive
same,diameter of the inhibition zone (DIZ),[9],inactive
same,diameter of the inhibition zone (DIZ),[10],inactive
same,diameter of the inhibition zone (DIZ),[11],inactive
same,diameter of the inhibition zone (DIZ),[12],inactive
same,diameter of the inhibition zone (DIZ),[13],inactive
same,diameter of the inhibition zone (DIZ),[14],inactive
same,diameter of the inhibition zone (DIZ),[15],inactive
same,zone of inhibition at 50 µg/disc,[16],8 mm
same,diameter of the inhibition zone (DIZ),[17],inactive
same,diameter of the inhibition zone (DIZ),[18],inactive
same,zone of inhibition at 100 µg/disc,[19],10 mm
same,diameter of the inhibition zone (DIZ),[20],inactive
same,diameter of the inhibition zone (DIZ),[21],inactive
same,diameter of the inhibition zone (DIZ),[22],inactive
same,diameter of the inhibition zone (DIZ),[23],inactive
same,diameter of the inhibition zone (DIZ),[24],inactive
Cc1cc(SCc2nnc(-c3ccc([N+](=O)[O-])cc3)o2)nc(SCc2nnc(-c3ccc([N+](=O)[O-])cc3)o2)n1,diameter of the inhibition zone (DIZ),[1],inactive
same,zone of inhibition at 12.5 µg/disc,[2],20 mm
same,zone of inhibition at 12.5 µg/disc,[3],11 mm
same,zone of inhibition at 25 µg/disc,[4],17 mm
same,zone of inhibition at 25 µg/disc,[5],14 mm
same,zone of inhibition at 100 µg/disc,[6],19 mm
same,zone of inhibition at 50 µg/disc,[7],13 mm
same,zone of inhibition at 50 µg/disc,[8],16 mm
same,zone of inhibition at 25 µg/disc,[9],14 mm
same,zone of inhibition at 50 µg/disc,[10],19 mm
same,zone of inhibition at 100 µg/disc,[11],21 mm
same,zone of inhibition at 100 µg/disc,[12],15 mm
same,zone of inhibition at 25 µg/disc,[13],7 mm
same,zone of inhibition at 100 µg/disc,[14],10 mm
same,zone of inhibition at 12.5 µg/disc,[15],12 mm
same,zone of inhibition at 50 µg/disc,[16],24 mm
same,zone of inhibition at 12.5 µg/disc,[17],9 mm
same,zone of inhibition at 25 µg/disc,[18],11 mm
same,zone of inhibition at 100 µg/disc,[19],27 mm
same,zone of inhibition at 50 µg/disc,[20],16 mm
same,zone of inhibition at 50 µg/disc,[21],8 mm
same,zone of inhibition at 100 µg/disc,[22],21 mm
same,zone of inhibition at 12.5 µg/disc,[23],15 mm
same,zone of inhibition at 25 µg/disc,[24],22 mm
Cc1ccc(-c2nnc(CSc3cc(C)nc(SCc4nnc(-c5ccc(C)cc5)s4)n3)s2)cc1,diameter of the inhibition zone (DIZ),[1],inactive
same,zone of inhibition at 12.5 µg/disc,[2],9 mm
same,zone of inhibition at 12.5 µg/disc,[3],10 mm
same,zone of inhibition at 25 µg/disc,[4],16 mm
same,diameter of the inhibition zone (DIZ),[5],inactive
same,diameter of the inhibition zone (DIZ),[6],inactive
same,zone of inhibition at 50 µg/disc,[7],11 mm
same,zone of inhibition at 50 µg/disc,[8],15 mm
same,zone of inhibition at 25 µg/disc,[9],12 mm
same,zone of inhibition at 50 µg/disc,[10],18 mm
same,zone of inhibition at 100 µg/disc,[11],19 mm
same,zone of inhibition at 100 µg/disc,[12],13 mm
same,diameter of the inhibition zone (DIZ),[13],inactive
same,zone of inhibition at 100 µg/disc,[14],8 mm
same,diameter of the inhibition zone (DIZ),[15],inactive
same,zone of inhibition at 50 µg/disc,[16],13 mm
same,zone of inhibition at 12.5 µg/disc,[17],8 mm
same,zone of inhibition at 25 µg/disc,[18],10 mm
same,zone of inhibition at 100 µg/disc,[19],15 mm
same,diameter of the inhibition zone (DIZ),[20],inactive
same,diameter of the inhibition zone (DIZ),[21],inactive
same,zone of inhibition at 100 µg/disc,[22],20 mm
same,zone of inhibition at 12.5 µg/disc,[23],14 mm
same,zone of inhibition at 25 µg/disc,[24],11 mm
